Molecules are shown by their SMILES. Numbered stars: 1 amine (or outer) side, 2 acyl side, 3 side chain; on linkers, the order of the positions; unused ones are H or OH. Square brackets hold non-standard residues; d marks the D form. Peptide text beside a SMILES is read from it. Trp(βS-Me,7-OMe) = COc1cccc2c([C@H](C)[C@H](N)C(=O)O)c[nH]c12; Trp(7-CN) = N#Cc1cccc2c(C[C@H](N)C(=O)O)c[nH]c12; Trp(7-Cl) = N[C@@H](Cc1c[nH]c2c(Cl)cccc12)C(=O)O; X29 = NC(=O)Cc1cccc(C[C@H](N[*:1])C(=O)[*:2])c1; Phe(3-COOH) = N[C@@H](Cc1cccc(C(=O)O)c1)C(=O)O; Phe(4-CONH2) = NC(=O)c1ccc(C[C@H](N)C(=O)O)cc1; Phe(4-COOH) = N[C@@H](Cc1ccc(C(=O)O)cc1)C(=O)O; X30 = O=C([C@@H](N[*:1])[C@H](O)c1ccncc1)[*:2]; Pip(5R-OH) = O=C(O)[C@@H]1CC[C@@H](O)CN1; X13 = O=C([C@H]1CC[C@@H](N[*:1])C1)[*:2]; X1 = O=C([C@@H]1CC[C@H](N[*:1])C1)[*:2]; Pip(4-aza) = O=C(O)[C@@H]1CNCCN1; 4Pal = N[C@@H](Cc1ccncc1)C(=O)O; NMeE = CN[C@@H](CCC(=O)O)C(=O)O; dHyp = O=C(O)[C@H]1C[C@H](O)CN1; Ahp(2) = CCCCC[C@H](N)C(=O)O; αMeS = C[C@](N)(CO)C(=O)O; Nle = CCCC[C@H](N)C(=O)O; Sar = CNCC(=O)O

The target in this experiment is T1, TNFα-induced NF-κB signal transduction pathway (TNFR1 signaling) in THP-1 cells (Homo sapiens, UniProt P19438).
T1 sequence (P19438 30-455): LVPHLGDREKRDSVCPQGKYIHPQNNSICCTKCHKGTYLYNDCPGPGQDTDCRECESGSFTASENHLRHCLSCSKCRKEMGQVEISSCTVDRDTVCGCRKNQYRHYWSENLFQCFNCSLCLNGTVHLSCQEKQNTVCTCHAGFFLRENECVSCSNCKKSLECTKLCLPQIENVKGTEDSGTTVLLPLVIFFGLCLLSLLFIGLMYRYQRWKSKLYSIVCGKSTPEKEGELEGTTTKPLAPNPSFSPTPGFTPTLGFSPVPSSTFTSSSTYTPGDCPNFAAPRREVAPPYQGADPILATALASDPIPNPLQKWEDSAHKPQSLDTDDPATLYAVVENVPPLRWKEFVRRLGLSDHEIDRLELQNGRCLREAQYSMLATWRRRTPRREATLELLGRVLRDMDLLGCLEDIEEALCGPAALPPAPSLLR
Kind of experiment: THP-1 Lucia NF-κB reporter cell assay, inhibition of TNFα-induced NF-κB signaling. Type of experiment: cell-based. The note with it: THP-1 NF-κB Lucia reporter cells, 10 ng/mL TNFα, 16-18 h, secreted luciferase; read-out: THP-1 IC50. The method, boiled down: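 Macrocyclic peptides were preincubated 1 h at 37 °C with THP-1 NF-κB-Lucia reporter cells (20,000 cells/well) in antibiotic-free RPMI 1640/10% FBS, then stimulated with 10 ng/mL human TNFα overnight (16-18 h). Secreted luciferase in supernatant was read by luminescence; IC50 from 4-parameter logistic fits.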
`CCCC[C@@H]1NC(=O)[C@@H]2CC[C@@H](C2)NC(=O)[C@H]([C@@H](C)c2c[nH]c3c(OC)cccc23)NC(=O)CN(C)C(=O)[C@H](Cc2ccc(C(=O)O)cc2)NC(=O)[C@H](Cc2ccc(C(N)=O)cc2)NC(=O)[C@](C)(CO)NC(=O)[C@H](Cc2c[nH]c3c(Cl)cccc23)NC(=O)[C@H](Cc2ccc(C(=O)O)cc2)NC(=O)[C@H](CC(N)=O)NC(=O)[C@H]2C[C@H](O)CN2C(=O)[C@H](Cc2c[nH]c3ccccc23)NC(=O)[C@@H]2CC[C@@H](O)CN2C(=O)[C@H](Cc2ccncc2)NC1=O` [SEQ ID NO. 247] (cyclo([4Pal][Pip(5R-OH)]W[dHyp]N[Phe(4-COOH)][Trp(7-Cl)][αMeS][Phe(4-CONH2)][Phe(4-COOH)][Sar][Trp(βS-Me,7-OMe)][X1][Nle])): the IC50 turned out to be 0.5 nM.

In the case of `CCCC[C@@H]1NC(=O)[C@@H]2CC[C@@H](C2)NC(=O)[C@H]([C@@H](C)c2c[nH]c3c(OC)cccc23)NC(=O)CN(C)C(=O)[C@H](Cc2cccc(C(=O)O)c2)NC(=O)[C@H](Cc2ccc(C(N)=O)cc2)NC(=O)[C@](C)(CO)NC(=O)[C@H](Cc2c[nH]c3c(Cl)cccc23)NC(=O)[C@H](Cc2ccc(C(=O)O)cc2)NC(=O)[C@H](CC(N)=O)NC(=O)[C@H]2C[C@H](O)CN2C(=O)[C@H](Cc2c[nH]c3ccccc23)NC(=O)[C@@H]2CC[C@@H](O)CN2C(=O)[C@H](Cc2ccncc2)NC1=O` [SEQ ID NO. 17] (cyclo([4Pal][Pip(5R-OH)]W[dHyp]N[Phe(4-COOH)][Trp(7-Cl)][αMeS][Phe(4-CONH2)][Phe(3-COOH)][Sar][Trp(βS-Me,7-OMe)][X1][Nle])), the IC50 came out at 0.8 nM.

For the compound `CCCC[C@@H]1NC(=O)[C@H]2CC[C@H](C2)NC(=O)[C@H]([C@@H](C)c2c[nH]c3c(OC)cccc23)NC(=O)CN(C)C(=O)[C@H](Cc2ccc(O)cc2)NC(=O)[C@H](Cc2ccc(C(N)=O)cc2)NC(=O)[C@](C)(CO)NC(=O)[C@H](Cc2c[nH]c3c(Cl)cccc23)NC(=O)[C@H](Cc2ccc(C(=O)O)cc2)NC(=O)[C@H](CC(N)=O)NC(=O)[C@H](CCC(=O)O)N(C)C(=O)[C@H](Cc2c[nH]c3ccccc23)NC(=O)[C@@H]2CC[C@@H](O)CN2C(=O)[C@H](Cc2ccncc2)NC1=O` [SEQ ID NO. 267] (cyclo([4Pal][Pip(5R-OH)]W[NMeE]N[Phe(4-COOH)][Trp(7-Cl)][αMeS][Phe(4-CONH2)]Y[Sar][Trp(βS-Me,7-OMe)][X13][Nle])), the IC50 was 1.7 nM.

With `CCCC[C@@H]1NC(=O)[C@@H]2CC[C@@H](C2)NC(=O)[C@H]([C@@H](C)c2c[nH]c3c(OC)cccc23)NC(=O)CN(C)C(=O)[C@H](Cc2cccc(CC(N)=O)c2)NC(=O)[C@H](Cc2ccc(C(=O)O)cc2)NC(=O)[C@](C)(CO)NC(=O)[C@H](Cc2c[nH]c3c(Cl)cccc23)NC(=O)[C@H](Cc2ccncc2)NC(=O)[C@H](CC(N)=O)NC(=O)[C@H](CCC(=O)O)N(C)C(=O)[C@H](Cc2c[nH]c3ccccc23)NC(=O)[C@@H]2CNCCN2C(=O)[C@H](Cc2ccncc2)NC1=O` [SEQ ID NO. 153] (cyclo([4Pal][Trp(7-Cl)][αMeS][Phe(4-COOH)][X29][Sar][Trp(βS-Me,7-OMe)][X1][Nle][4Pal][Pip(4-aza)]W[NMeE]N)), the IC50 is 2.6 nM.

Regarding `CCCCC[C@@H]1NC(=O)[C@@H]2CC[C@@H](C2)NC(=O)[C@H]([C@@H](C)c2c[nH]c3c(OC)cccc23)NC(=O)CN(C)C(=O)[C@H](Cc2ccc(C(N)=O)cc2)NC(=O)[C@H](Cc2ccc(C(N)=O)cc2)NC(=O)[C@](C)(CO)NC(=O)[C@H](Cc2c[nH]c3c(C#N)cccc23)NC(=O)[C@H](Cc2ccc(C(=O)O)cc2)NC(=O)[C@H](CC(N)=O)NC(=O)[C@H]2C[C@H](O)CN2C(=O)[C@H](Cc2c[nH]c3ccccc23)NC(=O)[C@H](CO)NC(=O)[C@H]([C@H](O)c2ccncc2)NC1=O` [SEQ ID NO. 16] (cyclo([Ahp(2)][X30]SW[dHyp]N[Phe(4-COOH)][Trp(7-CN)][αMeS][Phe(4-CONH2)][Phe(4-CONH2)][Sar][Trp(βS-Me,7-OMe)][X1])), the half-inhibitory concentration (IC50) was found to be 0.6 nM.

The values above are taken from patent publication US20240287138A1, “CYCLIC PEPTIDES FOR INHIBITING TNF RECEPTOR 1 ACTIVITY” (Merck Sharp & Dohme LLC, priority 2023, published 2024).
